Test results taken from US20240309319A1, “COMPOSITIONS AND METHODS FOR THE GENERATION OF NEURONS AND USES THEREOF” (Washington University, priority 2021, published 2024).

Tested on: cortical markers TBR1, MEF2C, BRN2, NEUROD2
Test: qPCR of cortical markers in miNs versus starting fibroblasts
Format: cell-based, human
Conditions: combination of MYT1L and ISX9 with miR-9/9*-124, day 30 miNs, ISX9 10 uM on PID 3, 6, 10, 14
Description: Direct Neuronal Reprogramming: Human fibroblasts were directly reprogrammed to miNs as previously described with modifications. Briefly, fibroblasts were transduced with supernatant lentivirus mix comprised of dox-inducible miR-9/9*-124, rtTA, and the transcription factor MYT1L. From PID1 to PID14 cells were treated with DAPT (2 uM) to increase neurite outgrowth and neuronal differentiation, and on PID 3, 6, 10, and 14, cells were also treated with the NEUROD1-activator ISX9 (10 uM) to push cortical fate. Fibroblasts and reprogramming cells were cultured in DMEM+10% FBS through replating at PID5. On PID6, cells were switched to Neurobasal-A with B27+(1000×) and Glutamax (500×), containing 1 μg/mL doxycycline, 200 μM dibutyl cyclic AMP, 1 mM valproic acid, 2 uM DAPT, 200 nM Ascorbic Acid, 10 ng/mL BDNF, 10 ng/mL NT-3, 1 μM retinoic acid, 10 uM ISX9, 100×RVC, and 3 μg/mL puromycin. […]
Quantitative PCR (qPCR): Total RNA was extracted from miNs using TRIzol (Invitrogen, USA) following manufacturer protocol. Reverse-transcription was performed with 150-200 ng of RNA with SuperScript IV First Strand Synthesis SuperMix (Invitrogen, USA). qPCR assay was run with SYBR Green PCR Master Mix and plate was run and analyzed on StepOnePlus Real-Time PCR System (AB Applied Biosystems, Germany). […] Expression values were calculated in Excel using the delta Ct method and Z-score calculation.

## O=C(NC1CC1)c1cc(-c2cccs2)on1 [ISX9, Isoxazole 9]
  Cortical fate (cortical marker expression by qPCR): sufficient to drive the cortical fate
